Measurements taken from ChEMBL document CHEMBL4368927, “A review on flavones targeting serine/threonine protein kinases for potential anticancer drugs” (Bioorg Med Chem, 2019).

Tests used:
Protein kinase C (PKC) = assay: Inhibition of PKC in rat brain homogenate using FKKSFKL-NH2 as substrate preincubated for 10 mins followed by substrate addition and measured after 5 mins in presence of [gamma-32P]ATP by liquid scintillation counting analysis; assay type: tissue-based
[1] = molecular target: Protein kinase C (PKC) (Rattus norvegicus) (UniProt P05696+P68403+P09216+P63319+P09215+Q64617+Q9WTQ0+P09217); assay: Inhibition of PKC in rat brain homogenate at 50 uM using FKKSFKL-NH2 as substrate preincubated for 10 mins followed by substrate addition and measured after 5 mins in presence of [gamma-32P]ATP by liquid scintillation counting analysis relative to control; assay type: tissue-based
[2] = molecular target: Cyclin-dependent kinase 2/cyclin E1 (Homo sapiens, UniProt P24941); assay: Inhibition of human CDK2/cyclin E expressed in baculovirus expression system after 30 mins in presence of [gamma-33P]ATP by scintillation counting analysis
HT-29 = assay: Antiproliferative activity against human HT-29 cells assessed as reduction in [3H]-thymidine incorporation after 48 hrs by liquid scintillation assay; assay type: functional, cell-based
[3] = molecular target: Cyclin-dependent kinase 1 (Homo sapiens, UniProt P06493); assay: Inhibition of human CDK1
Chain of Cyclin-dependent kinase 1 (P06493 whole entry): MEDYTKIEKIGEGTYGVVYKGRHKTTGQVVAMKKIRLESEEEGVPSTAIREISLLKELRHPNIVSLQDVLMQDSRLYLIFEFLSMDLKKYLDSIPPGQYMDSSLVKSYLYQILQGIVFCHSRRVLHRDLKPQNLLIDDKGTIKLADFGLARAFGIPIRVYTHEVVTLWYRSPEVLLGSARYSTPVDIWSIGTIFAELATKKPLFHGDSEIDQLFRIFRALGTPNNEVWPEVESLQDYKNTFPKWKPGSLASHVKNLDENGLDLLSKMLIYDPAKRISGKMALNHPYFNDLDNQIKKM

[4] = molecular target: Cyclin-dependent kinase 4 (Homo sapiens, UniProt P11802); assay: Inhibition of human CDK4
Chain of Cyclin-dependent kinase 4 (P11802 whole entry): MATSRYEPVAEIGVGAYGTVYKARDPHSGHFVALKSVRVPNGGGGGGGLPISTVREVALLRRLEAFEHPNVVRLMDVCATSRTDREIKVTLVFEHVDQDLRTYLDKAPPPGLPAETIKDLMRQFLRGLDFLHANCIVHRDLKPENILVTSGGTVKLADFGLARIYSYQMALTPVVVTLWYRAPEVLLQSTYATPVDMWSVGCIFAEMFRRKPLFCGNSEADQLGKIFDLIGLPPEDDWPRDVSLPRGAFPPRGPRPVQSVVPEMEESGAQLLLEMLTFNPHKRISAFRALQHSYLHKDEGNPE

[5] = molecular target: Cyclin-dependent kinase 6 (Homo sapiens, UniProt Q00534); assay: Inhibition of human CDK6
Chain of Cyclin-dependent kinase 6 (Q00534 whole entry): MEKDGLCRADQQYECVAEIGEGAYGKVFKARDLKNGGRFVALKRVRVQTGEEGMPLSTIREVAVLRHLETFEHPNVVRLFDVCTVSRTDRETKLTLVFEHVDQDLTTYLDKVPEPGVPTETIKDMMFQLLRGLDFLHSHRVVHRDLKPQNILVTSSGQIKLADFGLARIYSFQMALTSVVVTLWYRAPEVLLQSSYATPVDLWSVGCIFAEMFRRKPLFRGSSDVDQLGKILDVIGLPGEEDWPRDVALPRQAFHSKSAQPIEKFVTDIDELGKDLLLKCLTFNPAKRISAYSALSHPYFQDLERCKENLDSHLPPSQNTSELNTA

[6] = molecular target: Proto-oncogene tyrosine-protein kinase Src (Homo sapiens, UniProt P12931); assay: Inhibition of pp60 src (unknown origin)
Chain of Proto-oncogene tyrosine-protein kinase Src (P12931 2-536 limits assumed): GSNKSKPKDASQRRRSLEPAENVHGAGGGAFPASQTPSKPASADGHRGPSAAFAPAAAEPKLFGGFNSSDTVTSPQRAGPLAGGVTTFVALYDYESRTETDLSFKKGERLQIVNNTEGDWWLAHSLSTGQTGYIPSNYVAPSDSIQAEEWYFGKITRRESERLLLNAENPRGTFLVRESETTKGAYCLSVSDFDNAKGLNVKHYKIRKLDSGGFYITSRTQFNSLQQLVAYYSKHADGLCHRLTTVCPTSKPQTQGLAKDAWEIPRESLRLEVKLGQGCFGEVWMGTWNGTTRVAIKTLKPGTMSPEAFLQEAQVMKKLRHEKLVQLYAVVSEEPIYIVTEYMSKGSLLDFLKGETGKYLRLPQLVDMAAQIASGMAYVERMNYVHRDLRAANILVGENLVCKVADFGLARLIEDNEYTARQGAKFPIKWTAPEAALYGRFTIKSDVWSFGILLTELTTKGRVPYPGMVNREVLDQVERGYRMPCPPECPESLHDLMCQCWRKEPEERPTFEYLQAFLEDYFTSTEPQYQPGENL

[7] = Inhibition of protein kinase A (unknown origin); parameters: species or system Homo sapiens
[8] = molecular target: Mitogen-activated protein kinase 3 (Homo sapiens, UniProt P27361); assay: Inhibition of Erk-1 (unknown origin)
Chain of Mitogen-activated protein kinase 3 (P27361 whole entry): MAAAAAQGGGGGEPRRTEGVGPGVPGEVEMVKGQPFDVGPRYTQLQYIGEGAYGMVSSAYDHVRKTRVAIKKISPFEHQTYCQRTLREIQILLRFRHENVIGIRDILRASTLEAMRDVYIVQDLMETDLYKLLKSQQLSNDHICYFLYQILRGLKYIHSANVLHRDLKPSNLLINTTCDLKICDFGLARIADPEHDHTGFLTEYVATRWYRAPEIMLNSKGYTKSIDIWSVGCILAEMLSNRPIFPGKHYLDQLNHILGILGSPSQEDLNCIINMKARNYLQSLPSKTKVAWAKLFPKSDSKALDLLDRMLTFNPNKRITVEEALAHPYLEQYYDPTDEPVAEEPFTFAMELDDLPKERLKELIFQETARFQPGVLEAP

[9] = Inhibition of CDK6/cyclin D (unknown origin); parameters: species or system Homo sapiens
[10] = molecular target: Serine/threonine-protein kinase pim-1 (Homo sapiens) (UniProt P11309)
Chain of Serine/threonine-protein kinase pim-1 (Homo sapiens) (P11309 whole entry, looked up): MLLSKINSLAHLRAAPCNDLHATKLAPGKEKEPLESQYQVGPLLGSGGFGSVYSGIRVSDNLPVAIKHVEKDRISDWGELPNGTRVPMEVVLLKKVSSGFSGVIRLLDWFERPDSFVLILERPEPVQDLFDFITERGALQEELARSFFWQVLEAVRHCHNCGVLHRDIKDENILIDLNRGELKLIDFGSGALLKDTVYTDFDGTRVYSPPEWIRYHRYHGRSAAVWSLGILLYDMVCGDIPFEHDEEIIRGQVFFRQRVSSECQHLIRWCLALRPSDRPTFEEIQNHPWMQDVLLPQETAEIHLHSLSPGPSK
Description: Inhibition of PIM1 in human RWPE2 cells assessed as inhibition of cell growth

CDK7/Cyclin H/MNAT1 = CDK7/Cyclin H/MNAT1 (Homo sapiens, UniProt P50613); assay: Inhibition of recombinant human full length C-terminal His6-tagged and N-terminal GST-tagged CDK7/cyclinH/MAT1 expressed in baculovirus Sf21 insect cells after 40 mins in presence of [gamma-32P]ATP by scintillation counting analysis
Chain of CDK7/Cyclin H/MNAT1 (P51946 whole entry): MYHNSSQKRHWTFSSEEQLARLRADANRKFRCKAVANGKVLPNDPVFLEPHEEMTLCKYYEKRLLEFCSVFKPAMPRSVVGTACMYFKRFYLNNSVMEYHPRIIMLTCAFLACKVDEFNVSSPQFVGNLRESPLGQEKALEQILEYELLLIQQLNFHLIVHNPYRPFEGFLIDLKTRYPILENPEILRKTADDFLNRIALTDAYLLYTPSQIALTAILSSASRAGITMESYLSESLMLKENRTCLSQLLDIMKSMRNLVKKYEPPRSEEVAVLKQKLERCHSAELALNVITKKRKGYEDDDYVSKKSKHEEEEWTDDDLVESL
Chain of CDK7/Cyclin H/MNAT1 (P50613 whole entry): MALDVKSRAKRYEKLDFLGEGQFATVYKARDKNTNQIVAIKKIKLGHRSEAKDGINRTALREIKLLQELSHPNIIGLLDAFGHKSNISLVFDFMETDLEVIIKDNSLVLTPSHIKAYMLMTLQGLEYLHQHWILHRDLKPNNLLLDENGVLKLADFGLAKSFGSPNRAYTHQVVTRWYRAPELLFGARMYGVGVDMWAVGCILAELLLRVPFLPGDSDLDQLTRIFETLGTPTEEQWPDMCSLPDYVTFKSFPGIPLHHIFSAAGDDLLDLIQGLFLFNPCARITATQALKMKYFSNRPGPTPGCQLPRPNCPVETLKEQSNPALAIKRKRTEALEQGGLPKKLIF
Chain of CDK7/Cyclin H/MNAT1 (P51948 whole entry, further chain): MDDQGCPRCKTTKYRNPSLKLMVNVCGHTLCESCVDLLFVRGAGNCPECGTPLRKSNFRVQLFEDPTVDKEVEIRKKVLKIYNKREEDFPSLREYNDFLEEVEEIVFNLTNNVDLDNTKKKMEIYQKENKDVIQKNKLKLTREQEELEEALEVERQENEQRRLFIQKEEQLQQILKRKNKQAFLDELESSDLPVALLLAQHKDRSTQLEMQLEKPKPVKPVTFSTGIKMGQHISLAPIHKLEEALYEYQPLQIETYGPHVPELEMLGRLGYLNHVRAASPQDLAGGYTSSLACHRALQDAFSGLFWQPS

With `O=c1c(O)c(-c2cc(O)c(O)c(O)c2)oc2cc(O)cc(O)c12` [MYRICETIN] the IC50 (Protein kinase C (PKC)) was 7.8 µM.

In the case of `O=c1c(O)c(-c2ccc(O)c(O)c2)oc2cc(O)cc(O)c12`, the inhibition [1] is reported as 64%.

Compound `CN1CC[C@H](c2c(O)cc(O)c3c(=O)cc(-c4ccccc4Cl)oc23)[C@H]1CO` has an IC50 [2] of 21 µM and an IC50 (HT-29) of 17.9 µM.

Work on `CN1CC[C@@H](c2c(O)cc(O)c3c(=O)cc(-c4ccccc4Cl)oc23)[C@@H]1CO` yielded an IC50 [2] of 2.8 µM and an IC50 (HT-29) of 0.58 µM.

Work on `CN1CC[C@@H](c2c(O)cc(O)c3c(=O)cc(-c4ccc(C(F)(F)F)cc4Cl)oc23)[C@@H]1CO` [VORUCICLIB] yielded an IC50 [3] of under 0.1 µM, an IC50 [4] of under 0.1 µM and an IC50 [5] of under 0.1 µM.

With `CN1CC[C@H](c2c(O)cc(O)c3c(=O)cc(-c4ccccc4Cl)oc23)[C@H](O)C1` [ALVOCIDIB] the IC50 [6] was 34 µM, the IC50 [7] was 122 to 145 µM and the IC50 [8] was 16 µM. It also gave an IC50 [9] of 0.06 µM.

In the case of `O=c1cc(-c2ccc(O)c(O)c2)oc2cc(O)cc(O)c12`, the inhibition [1] is reported as 70%.

Work on `CN1CC[C@@H](c2c(O)cc(O)c3c(=O)cc(-c4ccc([N+](=O)[O-])cc4Cl)oc23)[C@@H]1CO` yielded an IC50 [2] of 1.7 µM and an IC50 (HT-29) of 1.2 µM.

`O=c1c(O)c(-c2ccc(O)c(O)c2)oc2cc(O)ccc12` showed an inhibition [1] of 85%.

Work on `O=c1c(O)c(-c2ccc(O)c(O)c2)oc2cc(O)c(O)c(O)c12` yielded an ED50 [10] of 5.5 µM.

For `COc1c(O)cc(O)c2c(=O)cc(-c3ccccc3)oc12` [WOGONIN], the IC50 (CDK7/Cyclin H/MNAT1) was 12.3 µM.
